{"source": "PubChem BioAssay AID1259409", "about": "(Chemical Carcinogenesis Research Information System (CCRIS), 2018)", "origin": "cited, not measured here", "test_system": "rodent chemically induced tumor inhibition, incidence and multiplicity", "assay": "CCRIS tumor inhibitor studies", "settings": "Carcinogen: 7,12-DIMETHYLBENZ[A]ANTHRACENE, 57-97-6, Route [Inhibitor]: SUBCUTANEOUS, Promoter: NONE USED", "data": [{"molecule": "CC(C)C[C@H]1C(=O)N2CCC[C@H]2[C@]2(O)O[C@](NC(=O)[C@@H]3C=C4c5cccc6[nH]c(Br)c(c56)C[C@H]4N(C)C3)(C(C)C)C(=O)N12", "values": [{"measurement": "tumour outcome (control, treated, inhibition, significance)", "setting": "Dose [Inhibitor]: 0.1 MG 1/D FOR 81 D BEGINNING 30 D PRIOR TO FIRST CARCINOGEN DOSE TO 30 D POST LAST CARCINOGEN DOSE (STUDY DURATION: 31, Species: MOUSE, Strain/Sex: BALB/FEMALE, Target Tissue: Type of Lesion: MAMMARY GLAND: CARCINOMA, Dose [Carcinogen]: 1 MG IN SESAME OIL 1/WK FOR 4 WK", "value": "8%, 8%, 0%, not significant"}, {"measurement": "tumour outcome (control, treated, inhibition, significance)", "setting": "Dose [Inhibitor]: 0.1 MG/30 G BW FOR 81 D BEGINNING 30 D POST LAST CARCINOGEN DOSE (STUDY DURATION: 27 WK), Species: MOUSE, Strain/Sex: BALB/FEMALE, Target Tissue: Type of Lesion: MAMMARY GLAND: CARCINOMA, Dose [Carcinogen]: 1 MG IN SESAME OIL 1/WK FOR 4 WK", "value": "7%, 8%, -14%, not significant"}, {"measurement": "tumour outcome (control, treated, inhibition, significance)", "setting": "Dose [Inhibitor]: 0.4 MG/100 G BW 1/D FOR 50 D BEGINNING 30 D POST LAST CARCINOGEN DOSE (90 D TO 140 D OF AGE) (STUDY DURATION: 25 WK), Species: RAT, Strain/Sex: LEWIS/FEMALE, Target Tissue: Type of Lesion: MAMMARY GLAND: CARCINOMA, Dose [Carcinogen]: 10 MG IN SESAME OIL ONCE AT 56 D OF AGE AND ONCE AT 63 D OF AGE", "value": "94%, 56%, 40%, p<0.005"}, {"measurement": "tumour outcome (control, treated, inhibition, significance)", "setting": "Dose [Inhibitor]: 0.4 MG/100 G BW 1/D FOR 61 D BEGINNING 27 D PRIOR TO FIRST CARCINOGEN DOSE TO 27 D POST LAST CARCINOGEN DOSE (29 TO 90 D, Species: RAT, Strain/Sex: LEWIS/FEMALE, Target Tissue: Type of Lesion: MAMMARY GLAND: CARCINOMA, Dose [Carcinogen]: 10 MG IN SESAME OIL ONCE AT 56 D OF AGE AND ONCE AT 63 D OF AGE", "value": "68%, 60%, 12%, not significant"}, {"measurement": "tumour outcome (control, treated, inhibition, significance)", "setting": "Dose [Inhibitor]: 0.4 MG/100 G BW 4/WK FOR 20 WK BEGINNING 12 D PRIOR TO FIRST CARCINOGEN DOSE (STUDY DURATION: 152 D), Species: RAT, Strain/Sex: LONG-EVANS/FEMALE, Target Tissue: Type of Lesion: HEMATOPOIETIC SYSTEM: LEUKEMIA (UNDIFFERENTIATED CELL), Dose [Carcinogen]: 10 MG IN SESAME OIL 1/2 WK FOR 12 WK (6 TOTAL DOSES)", "value": "13/40 (33%), 15/41 (36%), -9%, not significant"}, {"measurement": "tumour outcome (control, treated, inhibition, significance)", "setting": "Dose [Inhibitor]: 0.4 MG/100 G BW 4/WK FOR 35 WK BEGINNING 12 D PRIOR TO FIRST CARCINOGEN DOSE (STUDY DURATION: 257 D), Species: RAT, Strain/Sex: LONG-EVANS/MALE, Target Tissue: Type of Lesion: HEMATOPOIETIC SYSTEM: LEUKEMIA (UNDIFFERENTIATED CELL), Dose [Carcinogen]: 10 MG IN SESAME OIL 1/2 WK FOR 12 WK (6 TOTAL DOSES)", "value": "10/38 (26%), 8/38 (21%), 19%, not significant"}, {"measurement": "tumour outcome (control, treated, inhibition, significance)", "setting": "Dose [Inhibitor]: 0.4 MG/D FROM 26 TO 93 D OF AGE BEGINNING 30 D PRIOR TO FIRST CARCINOGEN DOSE (STUDY DURATION: 9 MO AFTER LAST DMBA TREA, Species: RAT, Strain/Sex: LEWIS/FEMALE, Target Tissue: Type of Lesion: MAMMARY GLAND: CARCINOMA, Dose [Carcinogen]: 10 MG TWICE ONCE AT 56 D AND ONCE AT 63 D OF AGE", "value": "70%, 62%, 11%, not significant"}, {"measurement": "tumour outcome (control, treated, inhibition, significance)", "setting": "Dose [Inhibitor]: 0.4 MG/D FROM 30 TO 90 D OF AGE BEGINNING 30 D PRIOR TO CARCINOGEN DOSE (STUDY DURATION: 6 MO AFTER DMBA TREATMENT), Species: RAT, Strain/Sex: SPRAGUE-DAWLEY/FEMALE, Target Tissue: Type of Lesion: MAMMARY GLAND: CARCINOMA, Dose [Carcinogen]: 20 MG ONCE AT 60 D OF AGE", "value": "96%, 82%, 15%, p<0.05"}, {"measurement": "tumour outcome (control, treated, inhibition, significance)", "setting": "Dose [Inhibitor]: 0.4 MG/D FROM 30 TO 90 D OF AGE BEGINNING 30 D PRIOR TO CARCINOGEN DOSE (STUDY DURATION: 9 MO AFTER AMBA TREATMENT), Species: RAT, Strain/Sex: SPRAGUE-DAWLEY/FEMALE, Target Tissue: Type of Lesion: MAMMARY GLAND: CARCINOMA, Dose [Carcinogen]: 5 MG ONCE AT 60 D OF AGE", "value": "82%, 60%, 27%, p<0.05"}, {"measurement": "tumour outcome (control, treated, inhibition, significance)", "setting": "Dose [Inhibitor]: 0.4 MG/D FROM 30 TO 90 D OF AGE BEGINNING 30 D PRIOR TO CARCINOGEN DOSE (STUDY DURATION: 9 MO AFTER DMBA TREATMENT), Species: RAT, Strain/Sex: SPRAGUE-DAWLEY/FEMALE, Target Tissue: Type of Lesion: MAMMARY GLAND: FIBROADENOMA, Dose [Carcinogen]: 5 MG ONCE AT 60 D OF AGE", "value": "25%, 15%, 40%, not significant"}, {"measurement": "tumour outcome (control, treated, inhibition, significance)", "setting": "Dose [Inhibitor]: 0.4 MG/D FROM 30 TO 90 D OF AGE BEGINNING 30 D PRIOR TO CARCINOGEN DOSE (STUDY DURATION: 9 MO AFTER LAST DMBA TREATMENT), Species: RAT, Strain/Sex: LONG-EVANS/FEMALE, Target Tissue: Type of Lesion: MAMMARY GLAND: CARCINOMA, Dose [Carcinogen]: 20 MG ONCE AT 60 D OF AGE", "value": "25%, 22%, 12%, not significant"}, {"measurement": "tumour outcome (control, treated, inhibition, significance)", "setting": "Dose [Inhibitor]: 0.4 MG/D FROM 30 TO 90 D OF AGE BEGINNING 30 D PRIOR TO CARCINOGEN DOSE (STUDY DURATION: 9 MO AFTER LAST DMBA TREATMENT), Species: RAT, Strain/Sex: LONG-EVANS/FEMALE, Target Tissue: Type of Lesion: MAMMARY GLAND: FIBROADENOMA, Dose [Carcinogen]: 20 MG ONCE AT 60 D OF AGE", "value": "12%, 3%, 75%, not significant"}, {"measurement": "tumour outcome (control, treated, inhibition, significance)", "setting": "Dose [Inhibitor]: 0.4 MG/D FROM 30 TO 90 D OF AGE BEGINNING 30 D PRIOR TO CARCINOGEN DOSE (STUDY DURATION: 12 MO AFTER DMBA TREATMENT), Species: RAT, Strain/Sex: SPRAGUE-DAWLEY/FEMALE, Target Tissue: Type of Lesion: MAMMARY GLAND: CARCINOMA, Dose [Carcinogen]: 1.25 MG ONCE AT 60 D OF AGE", "value": "10%, 10%, 0%, not significant"}, {"measurement": "tumour outcome (control, treated, inhibition, significance)", "setting": "Dose [Inhibitor]: 0.4 MG/D FROM 30 TO 90 D OF AGE BEGINNING 30 D PRIOR TO CARCINOGEN DOSE (STUDY DURATION: 12 MO AFTER DMBA TREATMENT), Species: RAT, Strain/Sex: SPRAGUE-DAWLEY/FEMALE, Target Tissue: Type of Lesion: MAMMARY GLAND: FIBROADENOMA, Dose [Carcinogen]: 1.25 MG ONCE AT 60 D OF AGE", "value": "90%, 80%, 11%, p<0.05"}]}]}
